According to patent US8653089B2, “Heterocyclic compounds and methods of use” (F. Hoffmann-La Roche AG, priority 2011, dated 2014):

The molecules below were run on production of CD69 by B lymphocytes in human whole blood activated by crosslinking surface IgM (assay: CD69 human whole blood assay (Example 903), FACS). Settings: Homo sapiens, Lymphocyte, B lymphocytes activated with goat F(ab')2 anti-human IgM, read-out: CD69 Hu Blood FACS IC50.
Format: cell-based
Description: There is good evidence that B-cells play a key role in the pathogenesis of autoimmune and/or inflammatory disease. Protein-based therapeutics that deplete B cells such as Rituxan are effective against autoantibody-driven inflammatory diseases such as rheumatoid arthritis (Rastetter et al. (2004) Annu Rev Med 55:477). CD69 is the early activation marker in leukocytes including T cells, thymocytes, B cells, NK cells, neutrophils, and eosinophils. The CD69 human whole blood assay (Example 903) determines the ability of compounds to inhibit the production of CD69 by B lymphocytes in human whole blood activated by crosslinking surface IgM with goat F(ab′)2 anti-human IgM.

IC50 [nM]	Structure (SMILES)
48.3	Cc1c(F)ccc2nc([C@H](C)Nc3ncnc(N)c3C#N)n(-c3ccccn3)c12 [Example 289, 4-Amino-6-[(S)-1-(6-fluoro-7-methyl-1-pyridin-2-yl-1H-benzoimidazol-2-yl)-ethylamino]-pyrimidine-5-carbonitrile]
97.2	C[C@H](Nc1ncnc(N)c1C#N)c1nc2ccc(F)c(C#N)c2n1-c1ccccn1 [Example 291, 2-[(S)-1-(6-Amino-5-cyano-pyrimidin-4-ylamino)-ethyl]-5-fluoro-3-pyridin-2-yl-3H-benzoimidazole-4-carbonitrile]
4.1	C[C@H](Nc1ncnc2[nH]cnc12)c1nc2ccc(F)c(C3CC3)c2n1-c1cccnc1 [Example 294, [(S)-1-(7-Cyclopropyl-6-fluoro-1-pyridin-3-yl-1H-benzoimidazol-2-yl)-ethyl]-(9H-purin-6-yl)-amine]
35.5	C[C@H](Nc1ncnc(N)c1C#N)c1nc2cccc(C3CC3)c2n1-c1cccnc1 [Example 299, 4-Amino-6-[(S)-1-(7-cyclopropyl-1-pyridin-3-yl-1H-benzoimidazol-2-yl)-ethylamino]-pyrimidine-5-carbonitrile]
34.1	C[C@H](Nc1ncnc(N)c1C#N)c1nc2ccc(F)c(Br)c2n1-c1cccnc1 [Example 301, 4-Amino-6-[(S)-1-(7-bromo-6-fluoro-1-pyridin-3-yl-1H-benzoimidazol-2-yl)-ethylamino]-pyrimidine-5-carbonitrile]
189	CC(Nc1ncnc(N)c1C#N)c1nc2cccnc2n1-c1ccccc1 (stereo not drawn) [Example 302, 4-Amino-6-[1-(3-phenyl-3H-imidazo[4,5-b]pyridin-2-yl)-ethylamino]-pyrimidine-5-carbonitrile]
172	OCC[C@H](Nc1ncnc2[nH]cnc12)c1nc2ccc(F)cc2n1-c1ccccn1 [Example 304, (S)-3-(6-Fluoro-1-pyridin-2-yl-1H-benzoimidazol-2-yl)-3-(9H-purin-6-ylamino)-propan-1-ol]
2.87	C[C@H](Nc1ncnc(N)c1C#N)c1nc2ccc(F)c(C3CC3)c2n1-c1cccnc1 [Example 306, 4-Amino-6-[(S)-1-(7-cyclopropyl-6-fluoro-1-pyridin-3-yl-1H-benzoimidazol-2-yl)-ethylamino]-pyrimidine-5-carbonitrile]
3900	C[C@H](Nc1ccncc1C#N)c1nc2ccc(F)cc2n1-c1ccccc1 [Example 312, 4-[(S)-1-(6-Fluoro-1-phenyl-1H-benzoimidazol-2-yl)-ethylamino]-nicotinonitrile]
481	C[C@H](Nc1ncncc1C#N)c1nc2ccc(F)cc2n1-c1ccccc1 [Example 316, 4-[(S)-1-(6-Fluoro-1-phenyl-1H-benzoimidazol-2-yl)-ethylamino]-pyrimidine-5-carbonitrile]
253	C[C@H](Nc1ncnc2[nH]cnc12)c1nc2ccc(F)cc2n1-c1ccc2c(c1)OCO2 [Example 320, [(S)-1-(l-Benzo[1,3]dioxol-5-yl-6-fluoro-1H-benzoimidazol-2-yl)-ethyl]-(9H-purin-6-yl)-amine]
18.8	C[C@H](Nc1ncnn2ccnc12)c1nc2ccc(F)cc2n1-c1ccccc1 [Example 321, [(S)-1-(6-Fluoro-1-phenyl-1H-benzoimidazol-2-yl)-ethyl]-imidazo[2,1-f][1,2,4]triazin-4-yl-amine]
145	C[C@H](Nc1ncnn2ccnc12)c1nc2ccc(F)cc2n1-c1ccccn1 [Example 322, [(S)-1-(6-Fluoro-1-pyridin-2-yl-1H-benzoimidazol-2-yl)-ethyl]-imidazo[2,1-f][1,2,4]triazin-4-yl-amine]
196	CC(Nc1ncnc2[nH]cnc12)c1nc2ccc(F)c(O)c2n1-c1ccccc1 (stereo not drawn) [Example 327, 5-Fluoro-3-phenyl-2-[1-(9H-purin-6-ylamino)-ethyl]-3H-benzoimidazol-4-ol]

Continued, molecule first:

Structure (SMILES)	IC50 [nM]
Cc1nc(N)nc(N[C@@H](C)c2nc3ccc(F)cc3n2-c2ccccc2)n1 [Example 258, N—[(S)-1-(6-Fluoro-1-phenyl-1H-benzoimidazol-2-yl)-ethyl]-6-methyl-[1,3,5]triazine-2,4-diamine]	141
C[C@H](Nc1ncnc2[nH]cnc12)c1nc2ccc(F)cc2n1-c1cncc(F)c1 [Example 260, {(S)-1-[6-Fluoro-1-(5-fluoro-pyridin-3-yl)-1H-benzoimidazol-2-yl]-ethyl}-(9H-purin-6-yl)-amine]	25.7
CC(Nc1ncnc2[nH]cnc12)c1nc2ccc(F)cc2n1-c1cncc(F)c1 (stereo not drawn) [Example 263, {1-[6-Fluoro-1-(5-fluoro-pyridin-3-yl)-1H-benzoimidazol-2-yl]-ethyl}-(9H-purin-6-yl)-amine]	25.4
COC[C@H](Nc1ncnc2[nH]cnc12)c1nc2ccc(F)cc2n1-c1ccccn1 [Example 270, [(R)-1-(6-Fluoro-1-pyridin-2-yl-1H-benzoimidazol-2-yl)-2-methoxy-ethyl]-(9H-purin-6-yl)-amine]	152
COC[C@H](Nc1ncnc(N)c1C#N)c1nc2ccc(F)cc2n1-c1ccccn1 [Example 271, 4-Amino-6-[(R)-1-(6-fluoro-1-pyridin-2-yl-1H-benzoimidazol-2-yl)-2-methoxy-ethylamino]-pyrimidine-5-carbonitrile]	38.8
C[C@H](Nc1ncnc2[nH]cnc12)c1nc2ccc(F)c(C(=O)N3CCOCC3)c2n1-c1ccccc1 [Example 273, {5-Fluoro-3-phenyl-2-[(S)-1-(9H-purin-6-ylamino)-ethyl]-3H-benzoimidazol-4-yl}-morpholin-4-yl-methanone]	26.8
C[C@H](Nc1ncnc2[nH]cnc12)c1nc2ccc(F)c(C3CC3)c2n1-c1ccccn1 [Example 274, [(S)-1-(7-Cyclopropyl-6-fluoro-1-pyridin-2-yl-1H-benzoimidazol-2-yl)-ethyl]-(9H-purin-6-yl)-amine]	26.8
C[C@H](Nc1ncnc(N)c1C#N)c1nc2ccc(F)cc2n1-c1ccccn1 [Example 275, 4-Amino-6-[(S)-1-(6-fluoro-1-pyridin-2-yl-1H-benzoimidazol-2-yl)-ethylamino]-pyrimidine-5-carbonitrile]	27.5
C[C@H](Nc1ncnc(N)c1C#N)c1nc2ccc(F)cc2n1-c1cncc(F)c1 [Example 277, 4-Amino-6-{(S)-1-[6-fluoro-1-(5-fluoro-pyridin-3-yl)-1H-benzoimidazol-2-yl]-ethylamino}-pyrimidine-5-carbonitrile]	18
C[C@H](Nc1ncnc2[nH]cnc12)c1nc2ccc(F)cc2n1[C@H]1CCCN(CCO)C1 [Example 278, 2-((S)-3-{6-Fluoro-2-[(S)-1-(9H-purin-6-ylamino)-ethyl]-benzoimidazol-1-yl}-piperidin-1-yl)-ethanol]	16.6
C[C@H](Nc1ncnc2[nH]cnc12)c1nc2cccc(C#N)c2n1-c1ccccc1 [Example 279, 3-Phenyl-2-[(S)-1-(9H-purin-6-ylamino)-ethyl]-3H-benzoimidazole-4-carbonitrile]	184
OC[C@H](Nc1ncnc2[nH]cnc12)c1nc2ccc(F)cc2n1-c1ccccn1 [Example 280, (R)-2-(6-Fluoro-1-pyridin-2-yl-1H-benzoimidazol-2-yl)-2-(9H-purin-6-ylamino)-ethanol]	139
C[C@H](Nc1ncnc2[nH]cnc12)c1nc2ccc(F)c(C#N)c2n1-c1cccnc1 [Example 281, 5-Fluoro-2-[(S)-1-(9H-purin-6-ylamino)-ethyl]-3-pyridin-3-yl-3H-benzoimidazole-4-carbonitrile]	110
